Reference: the supplement of paper PMC11451515

Test system: NOMO1
Assay: cell viability relative to DMSO control; higher = less cytotoxic
Settings: 48 h
Procedure, shortened: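 Library compounds in DMSO were pin-dosed into 1536-well plates (5 μl) holding NOMO1 or SEM (500 cells/well) or P12-Ichikawa (1000 cells/well) leukemia cells, across an 11-point threefold series of 47 μM to 0.79 nM. Each cell line had been adapted for at least four passages in each medium. CellTiter-Glo One luminescence was read after 48 h at 37°C. Viability is the per-plate percentage relative to DMSO wells, with cell-free wells as background.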

[1] = HPLM + 10% dialyzed FBS, 0.000781 µM
[2] = HPLM + 10% dialyzed FBS, 0.00234 µM
[3] = HPLM + 10% dialyzed FBS, 0.00702 µM
[4] = HPLM + 10% dialyzed FBS, 0.0211 µM
[5] = HPLM + 10% dialyzed FBS, 0.0632 µM
[6] = HPLM + 10% dialyzed FBS, 0.19 µM
[7] = HPLM + 10% dialyzed FBS, 0.569 µM
[8] = HPLM + 10% dialyzed FBS, 1.71 µM
[9] = HPLM + 10% dialyzed FBS, 5.12 µM
[10] = HPLM + 10% dialyzed FBS, 15.4 µM
[11] = HPLM + 10% dialyzed FBS, 46.1 µM
[12] = RPMI 5 mM glucose + 10% FBS, 0.000781 µM
[13] = RPMI 5 mM glucose + 10% FBS, 0.00234 µM
[14] = RPMI 5 mM glucose + 10% FBS, 0.00702 µM
[15] = RPMI 5 mM glucose + 10% FBS, 0.0211 µM
[16] = RPMI 5 mM glucose + 10% FBS, 0.0632 µM
[17] = RPMI 5 mM glucose + 10% FBS, 0.19 µM
[18] = RPMI 5 mM glucose + 10% FBS, 0.569 µM
[19] = RPMI 5 mM glucose + 10% FBS, 1.71 µM
[20] = RPMI 5 mM glucose + 10% FBS, 5.12 µM
[21] = RPMI 5 mM glucose + 10% FBS, 15.4 µM
[22] = RPMI 5 mM glucose + 10% FBS, 46.1 µM
[23] = RPMI 5 mM glucose + 10% dialyzed FBS, 0.000781 µM
[24] = RPMI 5 mM glucose + 10% dialyzed FBS, 0.00234 µM
[25] = RPMI 5 mM glucose + 10% dialyzed FBS, 0.00702 µM
[26] = RPMI 5 mM glucose + 10% dialyzed FBS, 0.0211 µM
[27] = RPMI 5 mM glucose + 10% dialyzed FBS, 0.0632 µM
[28] = RPMI 5 mM glucose + 10% dialyzed FBS, 0.19 µM
[29] = RPMI 5 mM glucose + 10% dialyzed FBS, 0.569 µM
[30] = RPMI 5 mM glucose + 10% dialyzed FBS, 1.71 µM
[31] = RPMI 5 mM glucose + 10% dialyzed FBS, 5.12 µM
[32] = RPMI 5 mM glucose + 10% dialyzed FBS, 15.4 µM
[33] = RPMI 5 mM glucose + 10% dialyzed FBS, 46.1 µM

SMILES	cell viability [1] [%]	cell viability [2] [%]	cell viability [3] [%]	cell viability [4] [%]	cell viability [5] [%]	cell viability [6] [%]	cell viability [7] [%]	cell viability [8] [%]	cell viability [9] [%]	cell viability [10] [%]	cell viability [11] [%]	cell viability [12] [%]	cell viability [13] [%]	cell viability [14] [%]	cell viability [15] [%]	cell viability [16] [%]	cell viability [17] [%]	cell viability [18] [%]	cell viability [19] [%]	cell viability [20] [%]	cell viability [21] [%]	cell viability [22] [%]	cell viability [23] [%]	cell viability [24] [%]	cell viability [25] [%]	cell viability [26] [%]	cell viability [27] [%]	cell viability [28] [%]	cell viability [29] [%]	cell viability [30] [%]	cell viability [31] [%]	cell viability [32] [%]	cell viability [33] [%]
COCCCC/C(=N\OCCN)c1ccc(C(F)(F)F)cc1	85.7	80.4	79.2	85.2	94.8	91.8	78.6	64.2	81.3	48.9	3.91	84.2	82	80.9	84.5	80.7	79.5	82	83	72.5	72.7	25.5	72.7	80.1	83.5	88.8	90.1	73.1	75.9	80	77.1	77.1	28.7
Clc1ccc(CCC(Cn2ccnc2)Sc2c(Cl)cccc2Cl)cc1 (centres undefined)	87.3	85.2	98	103	107	90.8	98.5	87	93.9	93.6	90.4	77.8	80.1	86.7	83.4	89.2	88.2	86.9	85.5	85.5	81.7	79.8	87.5	83.4	94.1	89.5	95.2	94.7	90.1	96.2	83.8	102	70.7
NC[C@H](O)c1ccc(O)c(O)c1	115	117	119	104	120	104	90.7	85.7	97.7	86.9	72.4	96.7	86.8	112	95.7	105	91	87.3	91.2	99.2	97.5	78	93.2	90.3	99	91	88.1	85.4	86.6	93.4	83.3	88.6	87.7
CN1CCC(CNc2ccc3ncc(-c4cccc(OC(F)(F)F)c4)n3n2)CC1	101	106	112	113	97.8	125	114	104	91	70.7	5.88	87.2	83.3	85.2	99.5	89.4	91.4	97.9	85.8	85.6	73.5	5.17	116	93.1	97.1	88.2	99.4	97.5	104	94.9	79.3	68.5	4.98
N#Cc1cc(NC(=O)Nc2nnc(-c3ccncc3)s2)ccc1-c1cn[nH]c1	117	118	115	110	116	114	113	130	121	123	106	108	100	114	124	114	115	99.6	114	105	127	101	–	–	–	–	–	–	–	–	–	–	–
CO[C@H]1C[C@@H]2CC[C@@H](C)[C@@](O)(O2)C(=O)C(=O)N2CCCC[C@H]2C(=O)O[C@H]([C@@H](C)C[C@@H]2CC[C@@H](O)[C@H](OC)C2)CC(=O)[C@H](C)/C=C(\C)[C@@H](O)[C@@H](OC)C(=O)[C@H](C)C[C@H](C)/C=C/C=C/C=C/1C	106	110	112	91	95.3	112	103	104	81.6	88.7	81.5	113	116	128	136	136	109	113	118	97.3	111	103	112	116	121	106	108	117	111	115	128	105	99.9
OC1=C(Cl)C=C(N\C2=C(\C(=O)NC2=O)C3=C(C=CC=C3)[N+]([O-])=O)C=C1	100	98.3	103	106	120	106	83.8	70	68.9	56.8	60.7	94.3	106	116	102	99.5	95.9	94.5	95.4	86.5	69.6	10.1	90.2	98.7	102	112	119	116	96.4	94.2	78.6	73.9	12.1
CN(CC(=O)N(Cc1ccc(C2CCCCC2)cc1)c1ccc(C(=O)O)c(O)c1)[S+](=O)([O-])c1c(F)c(F)c(F)c(F)c1F	101	109	104	101	117	107	101	102	95.1	83.5	31.7	92.8	82.5	88.4	84.3	88.5	88.6	86.9	87.7	83.9	83.4	63	74.1	95.2	103	94.1	93.8	110	95.4	95.3	95.6	86.6	51.8
CCCCN1CCC(CNC(=O)c2c3n(c4ccccc24)CCCO3)CC1	104	107	111	115	112	114	132	123	125	110	89.4	95.8	98.5	103	111	118	109	117	106	108	117	90.5	96.5	110	105	114	110	106	117	104	113	124	90.1
N#Cc1c(N(CC(=O)[O-])CC(=O)[O-])sc(C(=O)[O-])c1CC(=O)[O-].O.O.O.O.O.O.O.[Sr+2].[Sr+2]	113	123	150	130	137	129	148	123	138	124	112	–	–	–	–	–	–	–	–	–	–	–	–	–	–	–	–	–	–	–	–	–	–
CCCCCN(C)CCC(O)(P(=O)([O-])O)P(=O)(O)O	68.4	81.8	89	101	85.3	92.9	89.5	92.4	86	80	94	81.1	88.8	89.5	96.7	97.3	99.9	97.9	94.4	95	84.8	81.7	84.6	87.3	86.1	80	93.7	101	96.5	90.8	85.2	94.1	75
CC(O)(C[S+](=O)([O-])c1ccc(F)cc1)C(=O)Nc1ccc(C#N)c(C(F)(F)F)c1 (centres undefined)	84.9	85.7	98.6	92.6	96.8	97	112	94.2	94.8	87.5	48	86.5	93.4	96.5	93.3	85.5	85.8	91.6	93.3	92.3	86.1	50.7	75.9	91.7	101	95.3	107	109	105	82.5	86.6	79.4	57
C[C@H](NC(=O)[C@@H](O)c1cc(F)cc(F)c1)C(=O)N[C@@H]1C(=O)N(C)c2ccccc2-c2ccccc21	–	–	–	–	–	–	–	–	–	–	–	103	115	106	122	109	114	104	86.6	97.7	101	97.3	119	116	119	113	113	105	101	113	102	97.3	84.5
c1cc2c(cc1[C@H]1OC[C@H]3[C@@H]1CO[C@@H]3c1ccc3c(c1)OCO3)OCO2	115	120	135	112	134	143	139	138	118	131	124	113	122	129	130	146	138	139	125	119	136	130	119	127	123	130	139	137	125	164	117	129	137
CCOc1cc(C(=O)Nc2ccc(Cl)c(-c3nc4ccccc4[nH]3)c2)cc(OCC)c1OCC	79.3	104	101	102	104	108	105	115	107	116	63.3	72.8	90.6	81.9	92.8	93	90.3	83.5	83.2	88.2	98.1	59.1	83.8	84.3	104	84.6	84.6	90.3	87.3	95	109	101	50.1
OC(=O)CNC(=O)\C1=C(/O)C2=CC=CC=C2N(CC3=CC=CC=C3)C1=O	98.2	109	92	112	108	97.7	105	87.3	109	101	93.6	83.7	89.5	100	91.7	96.3	93	96.2	83.5	84.9	85.1	86.4	93	94.6	87.9	101	95.7	94	97.2	102	94.7	93	74.3
